Patent US8288370B2, “Substituted azetidine compounds of formula (I) useful in the treatment of functional gastrointestinal disorders, IBS, and functional dyspepsia” (Albireo AB, priority 2005, dated 2012)
Structures can show the parent of a compound that is named as a salt.

Tests used:
[1] = test system: Human Neurokinin-2 (NK2) Receptor; conditions: literature statement; cited from earlier work
human NK1 receptor = biological target: T1, human NK1 receptor (Homo sapiens, UniProt P25103); assay: FLIPR assay, inhibition of human NK1 receptor activation (intracellular Ca2+ increase); format: cell-based; conditions: CHO cells with human NK1 receptor, agonist Substance P; pKB converted from IC50
T1 construct: expressed in transfected cells; cDNA in pRcCMV
T1 sequence (P25103 whole entry): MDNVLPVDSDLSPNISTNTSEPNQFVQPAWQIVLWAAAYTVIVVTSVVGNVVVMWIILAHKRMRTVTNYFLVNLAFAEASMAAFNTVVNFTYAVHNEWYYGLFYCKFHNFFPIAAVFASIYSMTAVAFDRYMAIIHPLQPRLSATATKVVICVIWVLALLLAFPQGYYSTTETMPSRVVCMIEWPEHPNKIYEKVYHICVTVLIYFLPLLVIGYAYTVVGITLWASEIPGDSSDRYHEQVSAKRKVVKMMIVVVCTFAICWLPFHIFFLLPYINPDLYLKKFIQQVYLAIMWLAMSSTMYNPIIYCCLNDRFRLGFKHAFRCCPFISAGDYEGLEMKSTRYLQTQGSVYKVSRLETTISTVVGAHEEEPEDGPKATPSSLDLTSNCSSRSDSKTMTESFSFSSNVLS
Protocol: (§1) Chinese Hamster Ovary (CHO) K1 cells (obtained from ATCC) were stably transfected with the human NK2 receptor (hNK2R cDNA in pRc/CMV, Invitrogen) or the human NK3 receptor (hNK3R in pcDNA 3.1/Hygro (+)/IRES/CD8, Invitrogen vector modified at AstraZeneca EST-Bio UK, Alderley Park). The cells were transfected with the cationic lipid reagent LIPOFECTAMINE™ (Invitrogen) and selection was performed with Geneticin (G418, Invitrogen) at 1 mg/ml for the hNK2R transfected cells and with Hygromycin (Invitrogen) at 500 μg/ml for the hNK3R transfected cells. Single cell clones were collected by aid of Fluorescence Activated Cell Sorter (FACS), tested for functionality in a FLIPR assay (see below), expanded in culture and cryopreserved for future use. CHO cells stably transfected with human NK1 receptors originates from AstraZeneca R&D, Wilmington USA. Human NK1 receptor cDNA (obtained from RNA-PCR from lung tissue) was subcloned into pRcCMV (Invitrogen). Transfection was performed by Calcium Phosphate and selection with 1 mg/ml G418. […]
(§2) The activity of a compound of the invention to inhibit NK1/NK2/NK3 receptor activation measured as NK1/NK2/NK3 receptor mediated increase in intracellular Ca^2+ was assessed by the following procedure: […]

human NK2 receptor = biological target: T2, human NK2 receptor (Homo sapiens, UniProt P21452); assay: FLIPR assay, inhibition of human NK2 receptor activation (intracellular Ca2+ increase); format: cell-based; conditions: CHO cells with human NK2 receptor, agonist NKA; pKB converted from IC50
T2 construct: expressed in transfected cells; hNK2R cDNA in pRc/CMV
T2 sequence (P21452 1-398): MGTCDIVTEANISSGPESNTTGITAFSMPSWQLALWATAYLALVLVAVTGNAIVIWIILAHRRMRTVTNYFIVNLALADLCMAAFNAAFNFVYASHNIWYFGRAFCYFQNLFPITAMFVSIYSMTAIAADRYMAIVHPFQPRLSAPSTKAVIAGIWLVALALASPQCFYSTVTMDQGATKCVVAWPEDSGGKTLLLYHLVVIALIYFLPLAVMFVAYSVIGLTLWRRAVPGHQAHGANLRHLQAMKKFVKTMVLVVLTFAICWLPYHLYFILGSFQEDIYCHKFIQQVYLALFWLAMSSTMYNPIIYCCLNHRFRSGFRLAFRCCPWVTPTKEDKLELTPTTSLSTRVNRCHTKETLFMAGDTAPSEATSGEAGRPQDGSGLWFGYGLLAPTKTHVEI
Protocol: as §1, §2

human NK3 receptor = biological target: T3, human NK3 receptor (Homo sapiens, UniProt P29371); assay: FLIPR assay, inhibition of human NK3 receptor activation (intracellular Ca2+ increase); format: cell-based; conditions: CHO cells with human NK3 receptor, agonist Pro-7-NKB; pKB converted from IC50
T3 construct: expressed in transfected cells; hNK3R in pcDNA 3.1/Hygro (+)/IRES/CD8
T3 sequence (P29371 1-465): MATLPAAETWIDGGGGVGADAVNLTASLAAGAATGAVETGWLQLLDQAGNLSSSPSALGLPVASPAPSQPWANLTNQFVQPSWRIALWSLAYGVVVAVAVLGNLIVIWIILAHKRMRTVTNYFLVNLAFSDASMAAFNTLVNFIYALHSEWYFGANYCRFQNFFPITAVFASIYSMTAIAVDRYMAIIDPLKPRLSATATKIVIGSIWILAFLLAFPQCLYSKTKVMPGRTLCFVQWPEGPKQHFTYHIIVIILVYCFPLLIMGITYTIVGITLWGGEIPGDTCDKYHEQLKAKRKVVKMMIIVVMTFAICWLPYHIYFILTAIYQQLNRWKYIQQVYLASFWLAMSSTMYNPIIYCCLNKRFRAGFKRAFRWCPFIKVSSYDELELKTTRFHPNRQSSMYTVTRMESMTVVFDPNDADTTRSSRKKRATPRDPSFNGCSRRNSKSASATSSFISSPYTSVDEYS
Protocol: as §1, §2

[2] = biological target: hERG-encoded potassium channel (Homo sapiens, UniProt Q12809); assay: Activity against hERG (planar-array-based voltage clamp, Kiss et al.); format: cell-based
Sequence of hERG-encoded potassium channel (Q12809 whole entry): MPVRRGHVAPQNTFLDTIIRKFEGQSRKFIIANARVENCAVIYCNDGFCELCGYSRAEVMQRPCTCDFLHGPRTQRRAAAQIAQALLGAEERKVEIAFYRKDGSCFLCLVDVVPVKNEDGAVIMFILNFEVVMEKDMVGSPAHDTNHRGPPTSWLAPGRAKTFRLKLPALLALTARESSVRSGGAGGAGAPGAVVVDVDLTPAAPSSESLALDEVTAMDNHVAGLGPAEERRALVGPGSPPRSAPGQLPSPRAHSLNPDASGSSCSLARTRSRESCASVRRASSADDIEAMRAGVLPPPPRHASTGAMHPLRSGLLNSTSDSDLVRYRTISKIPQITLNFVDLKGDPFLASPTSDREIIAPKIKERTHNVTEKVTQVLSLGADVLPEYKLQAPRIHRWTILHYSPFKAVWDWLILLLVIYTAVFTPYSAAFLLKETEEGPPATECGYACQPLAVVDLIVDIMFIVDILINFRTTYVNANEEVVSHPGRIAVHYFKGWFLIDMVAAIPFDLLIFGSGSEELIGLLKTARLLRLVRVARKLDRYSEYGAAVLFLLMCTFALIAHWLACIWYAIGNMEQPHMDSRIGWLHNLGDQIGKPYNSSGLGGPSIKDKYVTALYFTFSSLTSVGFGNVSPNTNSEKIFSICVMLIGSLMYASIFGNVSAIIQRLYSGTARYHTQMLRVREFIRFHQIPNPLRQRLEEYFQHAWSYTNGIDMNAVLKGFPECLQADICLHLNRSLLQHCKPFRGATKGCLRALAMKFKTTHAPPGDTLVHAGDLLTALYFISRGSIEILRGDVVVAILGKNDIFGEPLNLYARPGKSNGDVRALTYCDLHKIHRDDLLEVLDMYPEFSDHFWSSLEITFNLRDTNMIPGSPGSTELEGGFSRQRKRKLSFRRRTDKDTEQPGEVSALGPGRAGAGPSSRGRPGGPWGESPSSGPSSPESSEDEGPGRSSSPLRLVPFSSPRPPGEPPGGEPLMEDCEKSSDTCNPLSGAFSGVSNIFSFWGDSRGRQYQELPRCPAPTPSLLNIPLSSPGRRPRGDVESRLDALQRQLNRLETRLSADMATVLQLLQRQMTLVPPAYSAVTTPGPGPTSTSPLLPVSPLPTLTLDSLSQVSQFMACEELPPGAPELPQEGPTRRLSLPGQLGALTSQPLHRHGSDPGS
From the text: The activity of compounds according to formula I against the hERG-encoded potassium channel can be determined according to Kiss L, et al. Assay Drug Dev Technol. 1 (2003), 127-35: “High throughput ion-channel pharmacology: planar-array-based voltage clamp”.

CYP3A4 = CYP3A4 (Homo sapiens, UniProt P08684); assay: CYP3A4 inhibition assay (Bapiro et al.); format: in vitro ADME
Sequence of CYP3A4 (P08684 whole entry): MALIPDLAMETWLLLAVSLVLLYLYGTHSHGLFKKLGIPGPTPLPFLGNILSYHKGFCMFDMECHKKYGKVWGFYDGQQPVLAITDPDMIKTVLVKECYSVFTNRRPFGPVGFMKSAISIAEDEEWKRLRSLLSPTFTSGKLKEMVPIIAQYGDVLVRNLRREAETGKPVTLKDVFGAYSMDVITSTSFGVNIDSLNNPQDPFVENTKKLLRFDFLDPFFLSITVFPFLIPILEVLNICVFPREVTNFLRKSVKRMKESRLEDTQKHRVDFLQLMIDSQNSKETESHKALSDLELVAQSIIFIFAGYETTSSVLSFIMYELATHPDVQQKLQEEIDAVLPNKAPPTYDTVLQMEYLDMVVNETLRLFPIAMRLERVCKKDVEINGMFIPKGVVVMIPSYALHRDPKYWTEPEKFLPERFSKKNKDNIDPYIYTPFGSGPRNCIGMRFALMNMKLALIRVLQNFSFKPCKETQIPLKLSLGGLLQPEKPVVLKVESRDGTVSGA
From the text: It is well known that severe problems such as toxicity may occur if plasma levels of one medication are altered by the co-administration of another drug. […] CYP (cytochrome P450) 3A4 is the most important enzyme in the human liver as a majority of oxidised drugs have been biotransformed by this enzyme. Accordingly, it is undesirable to employ a medication having a significant degree of such liver enzyme inhibiting properties. […] Thus, there is a need for a novel NK receptor antagonist with improved pharmacokinetic properties. The present invention provides compounds with CYP3A4 enzyme inhibiting properties at a low level, as comparatively high IC50 values are obtained in a CYP3A4 inhibiting assay. Said method for determining CYP3A4 inhibition is described in Bapiro et al; Drug Metab. Dispos. 29, 30-35 (2001).
The IC50 values tested according to Bapiro et al; Drug Metab. Dispos. 29, 30-35 (2001) were generally greater than 15 μM.

[3] = Metabolic stability in liver microsomes (intrinsic clearance); format: in vitro ADME; conditions: human, pH 7.4, HLM
Protocol: The rate of biotransformation can be measured as either metabolite(s) formation or the rate of disappearance of the parent compound. The experimental design involves incubation of low concentrations of substrate (usually 1.0 μM) with liver microsomes (usually 0.5 mg/ml) and taking out aliquotes at varying time points (usually 0, 5, 10, 15, 20, 30, 40 min.). The test compound is usually dissolved in DMSO. The DMSO concentration in the incubation mixture is usually 0.1% or less since more solvent can drastically reduce the activities of some CYP450s. Incubations are done in 100 mM potassium phosphate buffer, pH 7.4 and at 37° C. Acetonitrile or methanol is used to stop the reaction. The parent compound is analysed by HPLC-MS. From the calculated half-life, t1/2, the intrinsic clearance, Clint, is estimated by taking microsomal protein concentration and liver weight into account.

Kb (human NK1 receptor)	Kb (human NK2 receptor)	Kb (human NK3 receptor)	IC50 (CYP3A4)	microsomal CLint at 1 μM [3]	SMILES	functional NK2 receptor antagonistic properties [1]	IC50 [2]
					CN(CC(CCN1CC(N2CCOCC2)C1)c1ccc(Cl)c(Cl)c1)C(=O)c1ccccc1 (stereo not shown) [N-[2-(3,4-dichlorophenyl)-4-(3-morpholin-4-ylazetidin-1-yl)butyl]-N-methylbenzamide]	possess functional NK2 receptor antagonistic properties	
2 nM	15.8 nM	3.16 nM	> 50000 nM	14 µL/min/mg	CN(C[C@@H](CCN1CC(N2CCN3C(=O)CC[C@@H]3C2)C1)c1ccc(F)cc1)C(=O)c1cc(Br)cc(C(F)(F)F)c1 [Ex 1, 3-Bromo-N-((2S)-2-(4-fluorophenyl)-4-{3-[(8aR)-6-oxohexahydropyrrolo[1,2-a]pyrazin-2(1H)-yl]azetidin-1-yl}butyl)-N-methyl-5-(trifluoromethyl)benzamide dihydrochloride]		12400 nM
